Target: T1, pre-formed fibrils of hIAPP (Homo sapiens, UniProt P10997)
T1 construct: hIAPP is a 37-amino acid neuroendocrine peptide hormone; purchased Peptide 2.0 (USA)
T1 sequence (P10997 34-70 limits assumed): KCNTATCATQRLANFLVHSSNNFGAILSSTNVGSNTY
Assay: CD spectroscopy of pre-formed hIAPP fibrils with the tested molecules
Settings: hIAPP : molecule (1:5)
Experimental: For efficient treatment of proteinopathies it may be advantageous to disassemble amyloid aggregates/fibrils which are usually already present at the time of diagnosis[75]–[77]. […] Then, various doses of the hybrid molecules were added to the pre-formed fibrils and the mixtures were incubated for additional 10 h. The process of disaggregation was monitored by ThT-binding assay, CD spectroscopy, TEM and Congo red staining (Fig. 5).
The blank was subtracted from the acquired CD spectra. For the CD study in the presence of the tryptophan-galacosylamine molecules, the spectra of hybrid molecules were also recorded separately and subtracted from the respective sample spectra. The normalized data were plotted using Origin pro 2015 software.

NC(Cc1c[nH]c2ccccc12)C(=O)NC(Cc1c[nH]c2ccccc12)C(=O)O (stereo not shown) [WW]
Normalized CD spectra (wavelength 190.00): -1159830.00
Normalized CD spectra (wavelength 190.50): -799592.59
Normalized CD spectra (wavelength 191.00): -466296.57
Normalized CD spectra (wavelength 191.50): -159943.13
Normalized CD spectra (wavelength 192.00): 119467.75
Normalized CD spectra (wavelength 192.50): 371936.05
Normalized CD spectra (wavelength 193.00): 597461.77
Normalized CD spectra (wavelength 193.50): 796044.93
Normalized CD spectra (wavelength 194.00): 967685.51
Normalized CD spectra (wavelength 194.50): 1212380.23
Normalized CD spectra (wavelength 195.00): 1290140.24
Normalized CD spectra (wavelength 195.50): 1323180.24
Normalized CD spectra (wavelength 196.00): 1393960.26
Normalized CD spectra (wavelength 196.50): 1424490.23
Normalized CD spectra (wavelength 197.00): 1413320.40
Normalized CD spectra (wavelength 197.50): 1387150.18
Normalized CD spectra (wavelength 198.00): 1299100.11
Normalized CD spectra (wavelength 198.50): 1256630.40
Normalized CD spectra (wavelength 199.00): 1187490.08
Normalized CD spectra (wavelength 199.50): 1142090.27
Normalized CD spectra (wavelength 200.00): 1101290.79
Normalized CD spectra (wavelength 200.50): 1045740.12
Normalized CD spectra (wavelength 201.00): 960554.59
Normalized CD spectra (wavelength 201.50): 884170.56
Normalized CD spectra (wavelength 202.00): 793224.29
Normalized CD spectra (wavelength 202.50): 710397.29
Normalized CD spectra (wavelength 203.00): 623023.93
Normalized CD spectra (wavelength 203.50): 548091.19
Normalized CD spectra (wavelength 204.00): 460178.98
Normalized CD spectra (wavelength 204.50): 362812.96
Normalized CD spectra (wavelength 205.00): 267913.28
Normalized CD spectra (wavelength 205.50): 183033.71
Normalized CD spectra (wavelength 206.00): 99125.43
Normalized CD spectra (wavelength 206.50): 21202.95
Normalized CD spectra (wavelength 207.00): -58441.14
Normalized CD spectra (wavelength 207.50): -134432.91
Normalized CD spectra (wavelength 208.00): -202839.97
Normalized CD spectra (wavelength 208.50): -260187.32
Normalized CD spectra (wavelength 209.00): -323573.72
Normalized CD spectra (wavelength 209.50): -382447.61
Normalized CD spectra (wavelength 210.00): -437399.79
Normalized CD spectra (wavelength 210.50): -489520.86
Normalized CD spectra (wavelength 211.00): -539599.27
Normalized CD spectra (wavelength 211.50): -576249.85
Normalized CD spectra (wavelength 212.00): -613623.93
Normalized CD spectra (wavelength 212.50): -639995.46
Normalized CD spectra (wavelength 213.00): -663323.35
Normalized CD spectra (wavelength 232.00): -332238.92
Normalized CD spectra (wavelength 232.50): -324045.26
Normalized CD spectra (wavelength 233.00): -310464.00
Normalized CD spectra (wavelength 233.50): -306656.69
Normalized CD spectra (wavelength 234.00): -298160.53
Normalized CD spectra (wavelength 234.50): -288025.21
Normalized CD spectra (wavelength 235.00): -277617.45
Normalized CD spectra (wavelength 235.50): -265647.30
Normalized CD spectra (wavelength 236.00): -250898.81
Normalized CD spectra (wavelength 236.50): -242222.13
Normalized CD spectra (wavelength 237.00): -231613.39
Normalized CD spectra (wavelength 237.50): -223355.72
Normalized CD spectra (wavelength 238.00): -218172.86
Normalized CD spectra (wavelength 238.50): -206535.49
Normalized CD spectra (wavelength 239.00): -191737.01
Normalized CD spectra (wavelength 239.50): -180445.52
Normalized CD spectra (wavelength 240.00): -179664.78
Normalized CD spectra (wavelength 240.50): -172296.10
Normalized CD spectra (wavelength 241.00): -162102.32
Normalized CD spectra (wavelength 241.50): -148455.67
Normalized CD spectra (wavelength 242.00): -149233.62
Normalized CD spectra (wavelength 242.50): -139443.53
Normalized CD spectra (wavelength 243.00): -134411.20
Normalized CD spectra (wavelength 243.50): -135270.09
Normalized CD spectra (wavelength 244.00): -127740.28
Normalized CD spectra (wavelength 244.50): -125334.77
Normalized CD spectra (wavelength 245.00): -119297.62
Normalized CD spectra (wavelength 245.50): -115863.12
Normalized CD spectra (wavelength 246.00): -113285.78
Normalized CD spectra (wavelength 246.50): -114529.09
Normalized CD spectra (wavelength 247.00): -113972.59
Normalized CD spectra (wavelength 247.50): -115521.93
Normalized CD spectra (wavelength 248.00): -110033.91
Normalized CD spectra (wavelength 248.50): -107626.80
Normalized CD spectra (wavelength 249.00): -94087.61
Normalized CD spectra (wavelength 249.50): -91943.44
Normalized CD spectra (wavelength 250.00): -91987.89
Normalized CD spectra (wavelength 250.50): -83982.51
Normalized CD spectra (wavelength 251.00): -78786.13
Normalized CD spectra (wavelength 251.50): -77492.66
Normalized CD spectra (wavelength 252.00): -81506.91
Normalized CD spectra (wavelength 252.50): -74477.64
Normalized CD spectra (wavelength 253.00): -78503.70
Normalized CD spectra (wavelength 253.50): -82822.05
Normalized CD spectra (wavelength 254.00): -81558.46
Normalized CD spectra (wavelength 254.50): -84392.86
Normalized CD spectra (wavelength 255.00): -84114.71
Normalized CD spectra (wavelength 255.50): -85462.25
Normalized CD spectra (wavelength 256.00): -87106.95
Normalized CD spectra (wavelength 256.50): -89048.81
Normalized CD spectra (wavelength 257.00): -91287.84
Normalized CD spectra (wavelength 257.50): -93824.03
Normalized CD spectra (wavelength 258.00): -96657.38

From paper PMC7468108 (Communications Biology, 2020)
